Patent US5843900A (priority 1995, dated 1998)
Square brackets hold non-standard residues; d marks the D form. Peptide text beside a SMILES is read from it. * marks the point of attachment. X21 = CN1CC[C@]23c4c5ccc(OCCCCCCCCCCCC(=O)*)c4O[C@H]2[C@@H](O)CC[C@H]3[C@H]1C5; Hyp = O=C(O)[C@@H]1C[C@@H](O)CN1; dTic = O=C(O)[C@H]1Cc2ccccc2CN1; 2Thi = N[C@@H](Cc1cccs1)C(=O)O; Gly(N-cHex) = O=C(O)CNC1CCCCC1

Tests used:
human BK2 receptor = human BK2 receptor (Homo sapiens, UniProt P30411); test: biochemical; type: binding
Chain of human BK2 receptor (P30411 28-391): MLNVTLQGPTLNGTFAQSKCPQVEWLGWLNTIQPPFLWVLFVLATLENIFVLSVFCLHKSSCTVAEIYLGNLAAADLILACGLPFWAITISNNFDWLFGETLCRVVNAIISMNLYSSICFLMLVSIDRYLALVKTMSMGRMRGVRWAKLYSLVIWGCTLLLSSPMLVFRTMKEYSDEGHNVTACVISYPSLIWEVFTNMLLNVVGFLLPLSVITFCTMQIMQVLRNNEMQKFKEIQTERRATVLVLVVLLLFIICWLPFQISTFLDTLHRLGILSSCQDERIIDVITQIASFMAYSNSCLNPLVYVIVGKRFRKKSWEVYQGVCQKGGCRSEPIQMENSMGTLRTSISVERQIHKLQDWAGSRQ

[1] = system: carrageenan induced edema in the rat hind paw; conditions: in vivo
[2] = system: paw licking following formalin injection; conditions: mouse, in vivo
[3] = system: mustard oil induced neurogenic inflammation in the rat hind paw; conditions: in vivo
[4] = system: hypotensive response to bradykinin; test: Rat Blood Pressure: hypotensive response to bradykinin; type: in vivo; conditions: at the dose used in the carrageenan test
Experimental: Male rats were anesthetised with urethane, 1.25 g/kg, and cannulae were placed in the carotid artery and femoral vein for the injection and infusion of compounds and in the femoral artery for the recording of blood pressure. Standard hypotensive responses were obtained to repeated administration of bradykinin, 80 pM. These were repeated in the presence of increasing dose infusions of CP-0840. […] The selectivity of CP-0840 was assessed at a dose of 3 ug/kg/min. […] CP-0840 can be said to be a selective antagonist of bradykinin in vivo in the rat blood pressure assay (FIG. 9).

CN1CC[C@]23c4c5ccc(OCCCCCCCCCCCC(=O)N[C@H](CCCNC(=N)N)C(=O)N[C@@H](CCCNC(=N)N)C(=O)N6CCC[C@H]6C(=O)N6C[C@H](O)C[C@H]6C(=O)NCC(=O)N[C@@H](Cc6cccs6)C(=O)N[C@@H](CO)C(=O)N6Cc7ccccc7C[C@@H]6C(=O)N(CC(=O)N[C@@H](CCCNC(=N)N)C(=O)O)C6CCCCC6)c4O[C@H]2[C@@H](O)CC[C@H]3[C@H]1C5 [CP 695]
IC50 (human BK2 receptor): 1.26 nM

CN1CC[C@]23c4c5ccc(OCCCCCCCCCCCC(=O)NCCCC[C@H](NC(=O)[C@H](N)CCCNC(=N)N)C(=O)N6CCC[C@H]6C(=O)N6C[C@H](O)C[C@H]6C(=O)NCC(=O)N[C@@H](Cc6cccs6)C(=O)N[C@@H](CO)C(=O)N6Cc7ccccc7C[C@@H]6C(=O)N(CC(=O)N[C@@H](CCCNC(=N)N)C(=O)O)C6CCCCC6)c4O[C@H]2[C@@H](O)CC[C@H]3[C@H]1C5 [CP 723] (H-[dR]K(X21)P[Hyp]G[2Thi]S[dTic][Gly(N-cHex)]R-OH)
IC50 (human BK2 receptor): 0.398 nM

CN1CC[C@]23c4c5ccc(OCCCCCCCCCCCC(=O)NCCCC[C@H](NC(=O)CNC(=O)[C@@H]6C[C@@H](O)CN6C(=O)[C@@H]6CCCN6C(=O)[C@H](CCCNC(=N)N)NC(=O)[C@H](N)CCCNC(=N)N)C(=O)N[C@@H](CO)C(=O)N6Cc7ccccc7C[C@@H]6C(=O)N(CC(=O)N[C@@H](CCCNC(=N)N)C(=O)O)C6CCCCC6)c4O[C@H]2[C@@H](O)CC[C@H]3[C@H]1C5 [CP 831] (H-[dR]RP[Hyp]GK(X21)S[dTic][Gly(N-cHex)]R-OH)
IC50 (human BK2 receptor): 126 nM

CN1CC[C@]23c4c5ccc(OCc6ccc(C(=O)NCCC(=O)Nc7ccc(CC(=O)N[C@H](CCCNC(=N)N)C(=O)N[C@@H](CCCNC(=N)N)C(=O)N8CCC[C@H]8C(=O)N8C[C@H](O)C[C@H]8C(=O)NCC(=O)N[C@@H](Cc8cccs8)C(=O)N[C@@H](CO)C(=O)N8Cc9ccccc9C[C@@H]8C(=O)N(CC(=O)N[C@@H](CCCNC(=N)N)C(=O)O)C8CCCCC8)cc7)cc6)c4O[C@H]2[C@@H](O)C=C[C@H]3[C@H]1C5 [CP 836]
IC50 (human BK2 receptor): 1.26 nM

CN1CC[C@]23c4c5ccc(OCCCCCCCCCCCC(=O)NCCCC[C@H](NC(=O)[C@@H]6CCCN6C(=O)[C@H](CCCNC(=N)N)NC(=O)[C@H](N)CCCNC(=N)N)C(=O)NCC(=O)N[C@@H](Cc6cccs6)C(=O)N[C@@H](CO)C(=O)N6Cc7ccccc7C[C@@H]6C(=O)N(CC(=O)N[C@@H](CCCNC(=N)N)C(=O)O)C6CCCCC6)c4O[C@H]2[C@@H](O)CC[C@H]3[C@H]1C5 [CP 841] (H-[dR]RPK(X21)G[2Thi]S[dTic][Gly(N-cHex)]R-OH)
IC50 (human BK2 receptor): 12.6 nM

CN1CC[C@]23c4c5ccc(OCCCCCCCCCCCCCCC(=O)N[C@H](CCCNC(=N)N)C(=O)N[C@@H](CCCNC(=N)N)C(=O)N6CCC[C@H]6C(=O)N6C[C@H](O)C[C@H]6C(=O)NCC(=O)N[C@@H](Cc6cccs6)C(=O)N[C@@H](CO)C(=O)N6Cc7ccccc7C[C@@H]6C(=O)N(CC(=O)N[C@@H](CCCNC(=N)N)C(=O)O)C6CCCCC6)c4O[C@H]2[C@@H](O)CC[C@H]3[C@H]1C5 [CP 844]
IC50 (human BK2 receptor): 3.16 nM

CN1CC[C@]23c4c5ccc(OCCCCCCCCCCCC(=O)NCCCC[C@H](NC(=O)[C@H](CCCNC(=N)N)NC(=O)[C@H](N)CCCNC(=N)N)C(=O)N6C[C@H](O)C[C@H]6C(=O)NCC(=O)N[C@@H](Cc6cccs6)C(=O)N[C@@H](CO)C(=O)N6Cc7ccccc7C[C@@H]6C(=O)N(CC(=O)N[C@@H](CCCNC(=N)N)C(=O)O)C6CCCCC6)c4O[C@H]2[C@@H](O)CC[C@H]3[C@H]1C5 [CP 851] (H-[dR]RK(X21)[Hyp]G[2Thi]S[dTic][Gly(N-cHex)]R-OH)
IC50 (human BK2 receptor): 39.8 nM

CN1CC[C@]23c4c5ccc(OCCCCCCCCCCCC(=O)NCCCC[C@H](NC(=O)[C@@H]6C[C@@H](O)CN6C(=O)[C@@H]6CCCN6C(=O)[C@H](CCCNC(=N)N)NC(=O)[C@H](N)CCCNC(=N)N)C(=O)N[C@@H](Cc6cccs6)C(=O)N[C@@H](CO)C(=O)N6Cc7ccccc7C[C@@H]6C(=O)N(CC(=O)N[C@@H](CCCNC(=N)N)C(=O)O)C6CCCCC6)c4O[C@H]2[C@@H](O)CC[C@H]3[C@H]1C5 [CP 853] (H-[dR]RP[Hyp]K(X21)[2Thi]S[dTic][Gly(N-cHex)]R-OH)
IC50 (human BK2 receptor): 63.1 nM

CN1CC[C@]23c4c5ccc(OCc6cccc(C(=O)NCCC(=O)Nc7ccc(CC(=O)N[C@H](CCCNC(=N)N)C(=O)N[C@@H](CCCNC(=N)N)C(=O)N8CCC[C@H]8C(=O)N8C[C@H](O)C[C@H]8C(=O)NCC(=O)N[C@@H](Cc8cccs8)C(=O)N[C@@H](CO)C(=O)N8Cc9ccccc9C[C@@H]8C(=O)N(CC(=O)N[C@@H](CCCNC(=N)N)C(=O)O)C8CCCCC8)cc7)c6)c4O[C@H]2[C@@H](O)C=C[C@H]3[C@H]1C5 [CP 862]
IC50 (human BK2 receptor): 1 nM

CN1CC[C@]23c4c5ccc(O)c4O[C@H]2[C@@H](OCCCCCCCCCCCC(=O)N[C@H](CCCNC(=N)N)C(=O)N[C@@H](CCCNC(=N)N)C(=O)N2CCC[C@H]2C(=O)N2C[C@H](O)C[C@H]2C(=O)NCC(=O)N[C@@H](Cc2cccs2)C(=O)N[C@@H](CO)C(=O)N2Cc4ccccc4C[C@@H]2C(=O)N(CC(=O)N[C@@H](CCCNC(=N)N)C(=O)O)C2CCCCC2)CC[C@H]3[C@H]1C5 [CP 896]
IC50 (human BK2 receptor): 2 nM

CN1CC[C@]23c4c5ccc(O)c4O[C@H]2[C@@H](OCCCCCC(=O)N[C@H](CCCNC(=N)N)C(=O)N[C@@H](CCCNC(=N)N)C(=O)N2CCC[C@H]2C(=O)N2C[C@H](O)C[C@H]2C(=O)NCC(=O)N[C@@H](Cc2cccs2)C(=O)N[C@@H](CO)C(=O)N2Cc4ccccc4C[C@@H]2C(=O)N(CC(=O)N[C@@H](CCCNC(=N)N)C(=O)O)C2CCCCC2)CC[C@H]3[C@H]1C5 [CP 900]
IC50 (human BK2 receptor): 1.58 nM

CN1CC[C@]23c4c5ccc(O)c4O[C@H]2[C@@H](OCCCc2cccc(C(=O)N[C@H](CCCNC(=N)N)C(=O)N[C@@H](CCCNC(=N)N)C(=O)N4CCC[C@H]4C(=O)N4C[C@H](O)C[C@H]4C(=O)NCC(=O)N[C@@H](Cc4cccs4)C(=O)N[C@@H](CO)C(=O)N4Cc6ccccc6C[C@@H]4C(=O)N(CC(=O)N[C@@H](CCCNC(=N)N)C(=O)O)C4CCCCC4)c2)C=C[C@H]3[C@H]1C5 [CP 902]
IC50 (human BK2 receptor): 0.398 nM

CN1CC[C@]23c4c5ccc(O)c4O[C@H]2[C@@H](OCCCc2ccc(C(=O)N[C@H](CCCNC(=N)N)C(=O)N[C@@H](CCCNC(=N)N)C(=O)N4CCC[C@H]4C(=O)N4C[C@H](O)C[C@H]4C(=O)NCC(=O)N[C@@H](Cc4cccs4)C(=O)N[C@@H](CO)C(=O)N4Cc6ccccc6C[C@@H]4C(=O)N(CC(=O)N[C@@H](CCCNC(=N)N)C(=O)O)C4CCCCC4)cc2)C=C[C@H]3[C@H]1C5 [CP 905]
IC50 (human BK2 receptor): 0.501 nM

CN1CC[C@]23c4c5ccc(O)c4O[C@H]2[C@@H](OCc2ccc(C(=O)N[C@H](CCCNC(=N)N)C(=O)N[C@@H](CCCNC(=N)N)C(=O)N4CCC[C@H]4C(=O)N4C[C@H](O)C[C@H]4C(=O)NCC(=O)N[C@@H](Cc4cccs4)C(=O)N[C@@H](CO)C(=O)N4Cc6ccccc6C[C@@H]4C(=O)N(CC(=O)N[C@@H](CCCNC(=N)N)C(=O)O)C4CCCCC4)cc2)C=C[C@H]3[C@H]1C5 [CP 906]
IC50 (human BK2 receptor): 0.501 nM

D-Arg-Arg-Pro-Hyp-Gly-Thi-Ser-D-Tic-NChg-Arg [CP-0597]
Percentage inhibition of the carrageenan paw edema, 3 h [1]: 66.3
Percentage inhibition of the carrageenan paw edema, 6 h [1]: 0
effect on carrageenan edema response ([1]; sc): significant inhibition from 0-3 h
effect on first and second phase responses (paw licking time) [2]: no significant effect
effect on mustard oil edema response (Evan's blue dye) [3]: without effect
duration of action against blood pressure responses to bradykinin [4]: greater than 6 h
